{
  "source": "patent US20070112176A1",
  "about": "“Lipid membrane structure containing anti-mt-mmp monoclonal antibody” (DAIICHI PHARMACEUTICAL CO., LTD., priority 2003, published 2007)",
  "tested_on": "HT1080 cells",
  "assay": "Cytostatic test of liposomes with various antibody binding ratios, Test Example 6",
  "format": "cell-based, human",
  "details": "control group; free DOX 100 μg/mL, used as start value",
  "description": "According to the method described in Test Example 2-1), the cytostatic ability of various antibody-binding liposomes was evaluated by using the HT1080 cells. The cells were adhered to a 96-well plate, then added with anti-MT1-MMP monoclonal antibody (clone number: 222-1D8)-binding and anticancer agent-encapsulating liposomes (Fab′(222-1D8)-DOX-LP), and cultured for 1 hour. After the culture, the cells were washed, added with a fresh medium, and further cultured for 24 hours. After the cells were washed and cultured for 24 hours, a cell counting assay was performed, and A450 serving as an index of viable cell count was plotted. Means±S.D. (n=4) was indicated for each group. As control, only the medium (control), anticancer agent-encapsulating liposomes not bound with antibody (DOX-LP (Preparation Example (11)) or the anticancer agent alone (free DOX) was added instead of Fab′(222-1D8)-DOX-LP. A group in which only the medium was similarly treated without adding the cells was used as a blank. It was confirmed by multiple times of experiments that the start value used in the calculation of inhibitory rate and the like in Test Example 2 was not substantially different from the absorbance obtained with 100 μg/mL of DOX alone (free DOX) used as the sample, and therefore the value obtained for the 100 μg/mL free DOX group was used as the start value. […]",
  "data": [
    {"smiles": "COc1cccc2c1C(=O)c1c(O)c3c(c(O)c1C2=O)C[C@@](O)(C(=O)CO)C[C@@H]3O[C@H]1C[C@H](N)[C@H](O)[C@H](C)O1", "note": "[Free DOX, doxorubicin]", "values": [
      {"measurement": "Cytostatic ratio for HT1080 cells", "result": 100, "unit": "%"}
    ]}
  ]
}
